Reference: patent US20100273651A1 (priority 2007, published 2010)
Read-outs that look alike come from different tables or passages of the source.

Experiments:
Septoria tritici [1] = test: Use example No. 3: activity against Septoria tritici in the microtiter test (Septtr); assay type: cell-based; settings: relative growth vs active compound-free control (100%), 405 nm, day 7
Phakopsora pachyrhizi = test: Use Example 1: curative activity against soybean rust, greenhouse (Phakpa K1); assay type: in vivo; settings: soybean seedlings sprayed 24 h after inoculation, visual rating after 14 days, untreated 90
Procedure: (§1) The active compounds were prepared separately or jointly as a stock solution comprising 25 mg of active compound which was made up to 10 ml using a mixture of acetone and/or DMSO and the emulsifier Uniperolt EL (wetting agent having emulsifying and dispersing action based on ethoxylated alkyl phenols) in a volume ratio of solvent/emulsifier of 99:1. The mixture was then made up to 100 ml with water. This stock solution was diluted with the solvent/emulsifier/water mixture described to give the concentration of active compounds stated below. Alternatively, the active compounds were used as a commercial finished formulation and diluted with water to the concentration of active compounds stated.
Leaves of potted soybean seedlings were inoculated with a spore suspension of soybean rust (Phakpsora pachyrhizi). The pots were then placed in a chamber with high atmospheric humidity (90 to 95%) and at 23 to 27° C. for 24 hours. During this time, the spores germinated and the germ tubes penetrated into the leaf tissue. The infected plants were then sprayed to runoff point with the active compound solution described above at the active compound concentration stated below. After the spray coating had dried on, the test plants were cultivated in a greenhouse at temperatures between 23 and 27° C. and 60 to 80% relative atmospheric humidity for 14 days. The extent of the rust fungus development on the leaves was then determined visually in percent infection.

Pyricularia oryzae = assay type: cell-based
Septoria tritici [2] = test: Use Example 2: protective activity against Septoria leaf spot of wheat, greenhouse (Septtr P2); assay type: in vivo; settings: wheat seedlings inoculated 2 days after spraying, % infection of total leaf area after 21 days, untreated 90
Procedure: as §1
Leaves of potted wheat seedlings were sprayed to runoff point with an aqueous suspension having the active compound concentration stated below. 2 days after the spray coating had dried on, they were inoculated with an aqueous spore suspension of Septoria tritici. The test plants were then placed in a greenhouse at temperatures between 20 and 24° C. and a relative atmospheric humidity close to 100% for 4 days and then at temperatures between 18 and 22° C. and an atmospheric humidity of about 70%. After 21 days, the extent of the development of the disease was determined visually in % infection of the total leaf area.

Leptno = test: Comparative experiments: growth of Leptno (microtest, method not described); assay type: cell-based; settings: comparative experiments against prior-art compound
[3] = relative growth vs active compound-free control (100%), 405 nm, day 7
[4] = comparative experiments against prior-art compound

## 1,2-bis[1-rel-(2S,3R)-2-(2-chlorophenyl)-3-(2,4-dichlorophenyl)oxiran-2-ylmethyl-1H-1,2,4-triazole-5-yl]disulfane [Compound 14]
Septoria tritici [1]
  Growth in % at 31 ppm for Septtr: 4%

## 1-[rel-(2S,3R)-2-(2-chlorophenyl)-3-(2,4-dichlorophenyl)oxiran-2-ylmethyl]-1H-1,2,4-triazole-5(4H-6-thione [Compound 2]
Phakopsora pachyrhizi
  Infection in % at 150 ppm for Phakpa K1: 3%
Pyricularia oryzae; [3]
  Growth in % at 31 ppm for Pyrior: 5%
Septoria tritici [2]
  Infection in % at 150 ppm for Septtr P2: 10%

## S=c1[nH]cnn1C[C@]1(c2ccccc2)O[C@@H]1c1ccc(Cl)c(Cl)c1Cl (relative stereo) [Compound 4, 1-[rel-(2S,3R)-2-phenyl-3-(2,3,4-trichlorophenyl)oxiran-2-ylmethyl]-1H-1,2,4-triazole-5(4H)-thione]
Phakopsora pachyrhizi
  Infection in % at 150 ppm for Phakpa K1: 0%
Septoria tritici [2]
  Infection in % at 150 ppm for Septtr P2: 15%

## CSc1ncnn1C[C@]1(c2ccccc2Cl)O[C@@H]1c1ccc(Cl)cc1Cl (relative stereo) [Compound 5, 1-[rel-(2S,3R)-2-(2-chlorophenyl)-3-(2,4-dichlorophenyl)oxiran-2-ylmethyl]-5-(methylthio)-1H-1,2,4-triazole]
Septoria tritici [1]
  Growth in % at 31 ppm for Septtr: 0%
Pyricularia oryzae; [4]
  Growth in % at 31 ppm for Pyrior: 0%

## CSc1ncnn1C[C@]1(c2ccc(F)cc2)O[C@@H]1c1cccc(Cl)c1F (relative stereo) [Compound 7, 1-[rel-(2S,3R)-3-(3-chloro-2-fluorophenyl)-2-(4-fluorophenyl)oxiran-2-ylmethyl]-5-(methylthio)-1,2,4-triazole]
Phakopsora pachyrhizi; 600 ppm
  Infection in % at 600 ppm for Phakpa K1: 0%

## CS(=O)(=O)c1ncnn1C[C@]1(c2ccccc2Cl)O[C@@H]1c1ccc(Cl)cc1Cl (relative stereo) [Compound 8, 1-[rel-(2S,3R)-2-(2-chlorophenyl)-3-(2,4-dichlorophenyl)-oxiran-2-ylmethyl]-5-(methylsulfonyl)-1H-1,2,4-triazole]
Pyricularia oryzae; [3]
  Growth in % at 31 ppm for Pyrior: 8%

## CC(=O)Sc1ncnn1C[C@]1(c2ccccc2Cl)O[C@@H]1c1ccc(Cl)cc1Cl (relative stereo) [Compound 9, S-1-[rel-(2S,3R)-2-(2-chlorophenyl)-3-(2,4-dichorophenyl)oxiran-2-ylmethyl]-1H-1,2,4-triazole-5-ylethanethioate]
Pyricularia oryzae; [3]
  Growth in % at 31 ppm for Pyrior: 1%

## CC(=O)Sc1ncnn1C[C@]1(c2ccccc2)O[C@@H]1c1ccc(Cl)c(Cl)c1Cl (relative stereo) [Compound 10, S-1-[rel-(2S,3R)-2-phenyl)-3-(2,3,4-trichlorophenyl)oxiran-2-ylmethyl]-1H-1,2,4-triazole-5-yl ethanethioate]
Septoria tritici [1]
  Growth in % at 31 ppm for Septtr: 5%

## COC(=O)Sc1ncnn1C[C@]1(c2ccccc2Cl)O[C@@H]1c1ccc(Cl)cc1Cl (relative stereo) [Compound 11, S-{2-[2-(2-chlorophenyl)-3-(2,4-dichlorophenyl)oxiranylmethyl]-2H-[1,2,4]triazole-3-yl}methyl rel-(2S,3R)-thiocarbonate]
Pyricularia oryzae; [3]
  Growth in % at 31 ppm for Pyrior: 3%

## N#CSc1ncnn1C[C@]1(c2ccccc2Cl)O[C@@H]1c1ccc(Cl)cc1Cl (relative stereo) [Compound 12, 1-[rel-(2S,3R)-2-(2-chlorophenyl)-3-(2,4-dichlorophenyl)oxiran-2-ylmethyl]-5-thlocyanato-1H-1,2,4-triazole]
Phakopsora pachyrhizi
  Infection in % at 150 ppm for Phakpa K1: 0%
Septoria tritici [2]
  Infection in % at 150 ppm for Septtr P2: 10%

## [Na+].[S-]c1ncnn1C[C@]1(c2ccccc2Cl)O[C@@H]1c1ccc(Cl)cc1Cl (relative stereo) [Compound 13, sodium rel-(2S,3R)-2-(2-chlorophenyl)-3-(2,4-dichlorophenyl)oxiran-2-ylethyl]-1H-[1,2,4]triazole-5-thiolate]
Leptno
  Growth in % at 31 ppm for Leptno: 19%
Pyricularia oryzae; [3]
  Growth in % at 31 ppm for Pyrior: 19%

## CSc1ncnn1C[C@]1(c2ccccc2Cl)O[C@@H]1c1ccccc1Cl [WO9638440, p. 14 (5th compound), reference compound]
Pyricularia oryzae; [4]
  Growth in % at 31 ppm for Pyrior: 83%

## [Na+].[S-]c1ncnn1C[C@]1(c2ccccc2Cl)O[C@@H]1c1ccccc1Cl [WO9741107, p. 50 (5th compound), reference compound]
Leptno
  Growth in % at 31 ppm for Leptno: 51%
